Measurements from article PMC8022280 (ChemMedChem, 2018).

Assays:
Wip1 [1] = target: T1, Wip1 (Homo sapiens, UniProt O15297); experiment: Inhibition of Wip1 phosphatase activity toward the ATM; type: biochemical
T1 sequence (O15297 1-605): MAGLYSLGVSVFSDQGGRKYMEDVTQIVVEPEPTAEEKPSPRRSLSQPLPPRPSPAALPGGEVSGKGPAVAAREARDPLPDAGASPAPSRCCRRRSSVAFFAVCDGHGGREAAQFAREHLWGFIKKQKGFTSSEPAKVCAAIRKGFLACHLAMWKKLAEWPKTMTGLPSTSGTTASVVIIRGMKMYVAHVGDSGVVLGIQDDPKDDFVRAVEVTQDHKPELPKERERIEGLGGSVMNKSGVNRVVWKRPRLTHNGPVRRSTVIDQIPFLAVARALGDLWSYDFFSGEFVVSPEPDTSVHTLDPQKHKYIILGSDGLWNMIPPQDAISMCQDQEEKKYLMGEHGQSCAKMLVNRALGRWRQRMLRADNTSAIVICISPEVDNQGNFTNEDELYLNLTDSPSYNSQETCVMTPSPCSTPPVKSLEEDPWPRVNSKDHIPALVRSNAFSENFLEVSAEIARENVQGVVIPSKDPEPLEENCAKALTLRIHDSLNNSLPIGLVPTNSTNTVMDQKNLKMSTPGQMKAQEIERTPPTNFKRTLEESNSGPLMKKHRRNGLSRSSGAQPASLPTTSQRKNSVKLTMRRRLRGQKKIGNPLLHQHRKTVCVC

Wip1 [2] = target: T1, Wip1; experiment: Quantitative ELISA of γH2AX levels in MCF7 cells; type: cell-based; settings: no IR (Figure S2)

Row | IC50 (Wip1 [1]) | increase in γH2AX levels in the absence of exposure to IR (Wip1 [2]) | Structure (SMILES)
1 | 920 nM | did not produce a detectable increase | COC(=O)[C@H](CCCCNC(=O)[C@H](CC1CCCCC1)NC(=O)c1cccs1)NC(=O)c1cccc(O)c1 [Compound 1, Methyl-N^6-((S)-3-cyclohexyl-2-(thiophene-2-carboxamido)propanoyl)-N^2-(3-hydroxybenzoyl)-L-lysinate]
2 |  | did not produce a detectable increase | Cc1ncc(Cl)cc1NCc1ccc(C(=O)N[C@@H](CC2CCCC2)C(=O)NC2CC2)s1 [GSK2830371, reference compound]
